Values quoted from earlier work in patent US5900414A, “Methods for administering integrin receptor antagonists” (Merck & Co., Inc., priority 1997, dated 1999).
Positions of bridges follow the written chain, without caps; N, C: chain ends. Non-standard residues stand in square brackets, D forms with d. Residues, ends and D or L forms follow the SMILES beside them. hArg = N=C(N)NCCCC[C@H](N)C(=O)O; Mpa = O=C(O)CCS

Key:
[1] = tested on: GPIIb/IIIa
[2] = tested on: αv β3
[3] = tested on: GPIIa/IIIa
[4] = prodrug

Compound: N=C(N)c1ccc(C(=O)N[C@@H](Cc2ccc(O)cc2)C(=O)N2CCC(OCC(=O)O)CC2)cc1 [Ro 44-9883]
- selectivity for GPIIb/IIIa [1]: selective for GPIIb/IIIa

Compound: N=C(N)NCCCC[C@@H]1NC(=O)CCSSC[C@@H](C(N)=O)NC(=O)[C@@H]2CCCN2C(=O)[C@H](Cc2c[nH]c3ccccc23)NC(=O)[C@H](CC(=O)O)NC(=O)CNC1=O [Integrilin] ([Mpa][hArg]GDWPC-NH2; disulfide 1-7)
- effect on ligand binding to αv β3 [2]: very little effect
- ligand binding to GPIIa/IIIa [3]: inhibits ligand binding

Compound: CCCCS(=O)(=O)N[C@@H](Cc1ccc(OCCCCC2CCNCC2)cc1)C(=O)O [MK-383]
- selectivity for GPIIb/IIIa [1]: selective for GPIIb/IIIa

Compound: C#C[C@H](CC(=O)OCC)NC(=O)CCC(=O)Nc1ccc(C(=N)N)cc1 [SC54684]
- oral bioavailability [4]: high oral bioavailability
